Measurements taken from patent US10688197B2, “Non-alcoholic fatty liver regulator 14-3-3 protein” (Korea University Research and Business Foundation, priority 2015, dated 2020).

Columns and labels:
HepG2 cells = assay: mRNA expression by PCR in HepG2 cells; format: cell-based, human; conditions: for mRNA expression of SREBP-1c and FAT/CD36: HepG2, overexpression, 200 μM oleic acid 72 hours, FIG. 7A
Method: For mRNA extraction, the corresponding cells were lysed with 1 ml/well of TRIzol (Invitrogen), 200 μl of chloroform was added thereto and mixed well, the resultant cells were maintained at room temperature for 5 minutes and then centrifuged at 12,000×g and 4° C. for 15 minutes, the obtained supernatant was mixed with 500 μl of isopropanol and then put on ice for 10 minutes, the resulting supernatant was centrifuged at 12,000×g and 4° C. for 15 minutes to remove a supernatant, and then pellets were dissolved with tertiary distilled water treated with diethyl pyrocarbonate (DEPC). 2 μg of mRNA was synthesized into cDNA using a Superscript First Strand cDNA Synthesis Kit (Bioneer, Daejeon, South Korea) and the synthesized cDNA as a template was amplified through polymerase chain reaction (PCR) using primers specific to PPARγ2, 14-3-3β, 14-3-3γ, SREBP-1c, SCD-1, ACC, FABP, FAT/CD36, and β-actin of humans, and was amplified through real-time PCR using primers specific to PPARγ2, 14-3-3β, 14-3-3γ, SREBP-1c, FAT/CD36, and GAPDH of mice. β-actin and GAPDH were used as controls to see whether mRNAs of the respective cells were compared in the same amount.
HepG2 cells were seeded in a 6-well plate at a density of 4×10^5 cells per each well, and then transfected with GFP-14-3-3β DNA (4 μg) or GFP-14-3-3γ DNA (4 μg) using an E-fection plus reagent (Lugen). A ratio of DNA to the E-fection plus reagent was 1:2, and this method was performed according to a manufacturer's manual. After transfection, […], and for mRNA extraction, the corresponding cells were lysed with 1 ml/well of TRIzol (Invitrogen), 200 μl of chloroform was added thereto and mixed well, the resultant cells were maintained at room temperature for 5 minutes and then centrifuged at 12,000×g and 4° C. for 15 minutes, the obtained supernatant was mixed with 500 μl of isopropanol and then put on ice for 10 minutes, and the resulting supernatant was centrifuged at 12,000×g and 4° C. for 15 minutes to remove a supernatant, and then pellets were dissolved with tertiary distilled water treated with diethyl pyrocarbonate (DEPC). 2 μg of mRNA was synthesized into cDNA using a Superscript First Strand cDNA Synthesis Kit (Bioneer, Daejeon, South Korea) and the synthesized cDNA as a template was amplified through polymerase chain reaction (PCR) using primers specific to PPARγ2 (SEQ ID NOS: 1 and 2), 14-3-3β (SEQ ID NOS: 3 and 4), 14-3-3γ (SEQ ID NOS: 5 and 6), SREBP-1c, FAT/CD36, and β-actin of humans, and was amplified through real-time PCR using primers specific to SREBP-1c, FAT/CD36, and GAPDH of mice. β-actin and GAPDH were used as controls to see whether mRNAs of the respective cells were compared in the same amount.

[1] = test system: primary mouse hepatocytes; assay: Triglyceride colorimetric assay in primary mouse hepatocytes; format: cell-based; conditions: FIG. 10A
Method: HepG2 cells and primary mouse hepatocytes were separately seeded in a 6-well plate at a density of 4×10^5 cells per each well, and then transfected with GFP-14-3-3β DNA (1 μg) or GFP-14-3-3γ DNA (1 μg) and si-14-3-3β (10 μM, Santa Cruz) or si-14-3-3γ (10 μM, Santa Cruz) using an E-fection plus reagent (Lugen). A ratio of DNA to the E-fection plus reagent was 1:2, and this method was performed according to a manufacturer's manual. After transfection, the cells were treated with 200 μM of oleic acid (OA) for 72 hours, and the amount of triglycerides was measured using a triglyceride colorimetric assay kit (Cayman Chemical). The corresponding cells were washed with ice-cold PBS and then scraped using a standard diluent assay reagent, the scrapping process was repeated using a sonicator 20 times to lyse the cells, and the lysed cells were reacted with an enzyme buffer solution for 15 minutes, followed by measurement using an ELISA reader (Bio-Rad Laboratories, Inc) at a wavelength of 550 nm.

[2] = primary mouse hepatocytes, overexpression, 200 μM oleic acid 72 hours

In the case of “14-3-3β: 14-3-3 isoform protein overexpressed by DNA transfection; increases the transcriptional activity of PPARγ2 by binding to PPARγ2”, the “mRNA expression of SREBP-1c and FAT/CD36” value (HepG2 cells) is reported as “further increased” and the triglyceride accumulation [1, 2] is reported as “further increased”.
CCCCCCCC/C=C\CCCCCCCC(=O)O [oleic acid] was tested, and the “mRNA expression of PPARγ2” value (HepG2 cells; HepG2, oleic acid concentration-dependent, FIG. 6A) was “increased”, the “mRNA expression of lipid metabolism-associated genes (PPARγ2 target genes)” value (HepG2 cells; HepG2, oleic acid concentration-dependent, FIG. 6C) was “increased” and the “mRNA expression amounts of 14-3-3β and 14-3-3γ” value (HepG2 cells; HepG2, oleic acid treatment, FIG. 6A) was “no changes”. For the same compound, the triglyceride accumulation ([1]; primary mouse hepatocytes treated with oleic acid) was “increased”.
In the case of “14-3-3γ: 14-3-3 isoform protein overexpressed by DNA transfection; decreases the transcriptional activity of PPARγ2; proposed active ingredient”, the “mRNA expression of SREBP-1c and FAT/CD36” value (HepG2 cells) is reported as “reduced” and the triglyceride accumulation [1, 2] is reported as “reduced”.
